Tested on: Salmon Sperm DNA
Assay: Dox transfer from DCH to salmon sperm DNA (fluorescence quenching, stability of Dox:hairpin conjugate)
Assay type: physicochemical
Conditions: 100-fold excess spDNA (w/w), 37° C.
Protocol: Dox transfer from DCH: Samples of 2.5 μM (approximately 2 μg in 100 uL) DCH, doxorubicin, or hairpin+doxorubicin were prepared in DPBS with or without a 100-fold by weight (200 μg) excess of Salmon Sperm DNA and incubated at 37° C. Fluorescence intensity was determined by Typhoon-9210 variable mode imager with excitation set to 532 nm and the emission filter at 610 nm.
Stability of Dox:Hairpin Conjugate. It was hypothesized that covalent binding of Dox would allow for the Dox-conjugated hairpin to serve as a delivery vehicle with improved pharmacological properties and reduced systemic toxicities relative to conventional Dox. In order for the hairpin to act as an efficient delivery vehicle, Dox must remain stably bound under physiological conditions, but also undergo intracellular release and transfer to genomic DNA. […] Using the difference in fluorescence between hairpin-bound Dox and Dox intercalated into DNA, the half-life of the Dox-hairpin bond was measured. An assay was developed to quantify the transfer of Dox from the hairpin to genomic DNA under physiologic conditions. This assay is based on the difference in fluorescence of Dox in the context of the hairpin conjugate relative to genomic DNA. […] Reactions were incubated at 37° C. with fluorescence quenching measured over 48 h. […]

fluorescence quenching following addition of spDNA: fully quenched within one hour
Structure (SMILES): COc1cccc2c1C(=O)c1c(O)c3c(c(O)c1C2=O)C[C@@](O)(C(=O)CO)C[C@@H]3O[C@H]1C[C@H](N)[C@H](O)[C@H](C)O1 [Dox, Doxorubicin]

— patent US20180133331A1, “Site-Specific DNA-Doxorubicin Conjugates Display Enhanced Cytotoxicity to Breast Cancer Cells” (priority 2014, published 2018)
